Assay results as given in patent US20060093596A1, “Genomic approach to identification of novel broad-spectrum antimicrobial peptides from bony fish” (priority 2002, published 2006).
Where no end group is shown, it is not given here.

How the values were obtained:
[1] = system: Salmonella enterica s. Typhimurium MS4252S (C610, supersusceptible strain); assay type: cell-based; conditions: lowest peptide concentration inhibiting growth by at least 50%; Mueller-Hinton broth
Protocol: (§1) Most non-fish bacterial strains as well as Candida albicans were grown at 37° C. in Mueller-Hinton Broth (MHB; Difco Laboratories, Detroit), while the fish bacteria were maintained at 16° C. in Tryptic Soy Broth (TSB; Difco, 5g/l NaCl). All strains were stored at −70° C. until they were thawed for use and sub-cultured daily. The following strains, Pseudomonas aeruginosa K799 (parent of Z61), Pseudomonas aeruginosa Z61 (antibiotic supersusceptible), Salmonella typhimurium 14028s (parent of MS7953s), Salmonella typhimurium MS7953s (defensin supersusceptible), as well as Staphylococcus epidermidis (human clinical isolates) and methicillin-resistant Staphylococcus aureus (MRSA; isolated by Dr. A. Chow, University of British Columbia) have been kindly donated by Prof R. E. W. Hancock, University of British Columbia.
(§2) The activities of the antimicrobial peptides were determined as minimal inhibitory concentrations (MICs) using the microtitre broth dilution method of Amsterdam (Amsterdam, 1996), as modified by Wu and Hancock (1999). Serial dilutions of the peptide were made in water in 96-well polypropylene (Costar, Coming Incorporated, Coming, New York) microtiter plates. Bacteria or C. albicans were grown overnight to mid-logarithmic phase as described above, and diluted to give a final inoculum size of 10^6 cfu/ml. A suspension of bacteria or yeast was added to each well of a 96 well plate and incubated overnight at the appropriate temperature. […] Three repeats of each MIC determination were performed.

[2] = system: Salmonella enterica s. Typhimurium 14028S (C587); assay type: cell-based; conditions: lowest peptide concentration inhibiting growth by at least 50%; Mueller-Hinton broth
Protocol: as §1, §2

[3] = system: Pseudomonas aeruginosa K799 (H187); assay type: cell-based; conditions: lowest peptide concentration inhibiting growth by at least 50%; Mueller-Hinton broth
Protocol: as §1, §2

[4] = system: Pseudomonas aeruginosa Z61 (H188, supersusceptible strain); assay type: cell-based; conditions: lowest peptide concentration inhibiting growth by at least 50%; Mueller-Hinton broth
Protocol: as §1, §2

[5] = system: Escherichia coli C786, CGSC4908; assay type: cell-based; conditions: lowest peptide concentration inhibiting growth by at least 50%; supplemented Mueller-Hinton broth
Protocol: All strains were stored at −70° C. until they were thawed for use and sub-cultured daily.
Escherichia coli strain CGSC 4908 (his-67, thyA43, pyr-37), auxotrophic for thymidine, uridine, and L-histidine (Cohen et al., 1963) was kindly supplied, free of charge, by the E.coli Genetic Stock Centre (Yale University, New Haven, Conn.). MHB supplemented with 5 mg/L thymidine, 10 mg/L uridine and 20 mg/L L-histidine (Sigma Chemical Co., St. Louis, Mo.), was used to grow E.coli CGSC 4908 unless otherwise specified.
The activities of the antimicrobial peptides were determined as minimal inhibitory concentrations (MICs) using the microtitre broth dilution method of Amsterdam (Amsterdam, 1996), as modified by Wu and Hancock (1999). Serial dilutions of the peptide were made in water in 96-well polypropylene (Costar, Coming Incorporated, Coming, New York) microtiter plates. Bacteria or C. albicans were grown overnight to mid-logarithmic phase as described above, and diluted to give a final inoculum size of 10^6 cfu/ml. A suspension of bacteria or yeast was added to each well of a 96 well plate and incubated overnight at the appropriate temperature. In the case of E. coli CGSC 4908, supplemented MHB was used. […] Three repeats of each MIC determination were performed.

[6] = system: Escherichia coli UB1005 (C498); assay type: cell-based; conditions: lowest peptide concentration inhibiting growth by at least 50%; Mueller-Hinton broth
Protocol: as §1, §2

[7] = system: Escherichia coli DC2 (C500, outer membrane-permeable mutant); assay type: cell-based; conditions: lowest peptide concentration inhibiting growth by at least 50%; Mueller-Hinton broth
Protocol: as §1, §2

[8] = system: bacterial pathogens and C. albicans; test: Spectrum of antimicrobial activity (MIC panel, overall); assay type: cell-based; conditions: summary of MIC results against bacteria and C. albicans
Protocol: Three repeats of each MIC determination were performed.
The minimal inhibitory concentrations of the chemically produced peptides against a wide range of baterial pathogens and C. albicans were determined and are shown in Table 9.

[9] = system: Aeromonas salmonicida 99-1, A449
Protocol: (§3) Most non-fish bacterial strains as well as Candida albicans were grown at 37° C. in Mueller-Hinton Broth (MHB; Difco Laboratories, Detroit), while the fish bacteria were maintained at 16° C. in Tryptic Soy Broth (TSB; Difco, 5g/l NaCl).
(§4) Two field isolates of the salmonid pathogen Aeromonas salmonicida are from the IMB strain collection.
as §2

[10] = system: Aeromonas salmonicida 97-4
Protocol: as §3, §4, §2

[11] = system: Staphylococcus epidermidis C621 (clinical isolate)
Protocol: as §1, §2

[12] = system: methicillin-resistant Staphylococcus aureus (MRSA) C623, SAP017; conditions: methicillin-resistant C623, SAP017
Protocol: as §1, §2

[13] = system: Candida albicans C627, CALB105; conditions: C627, CALB105
Protocol: as §1, §2

Row | Substance | Minimal inhibitory concentration, S. typh MS4252s [1] [µg/mL] | Minimal inhibitory concentration, S. typh 14028s [2] [µg/mL] | Minimal inhibitory concentration, P. aeru K799 [3] [µg/mL] | Minimal inhibitory concentration, P. aeru Z61 [4] [µg/mL] | Minimal inhibitory concentration, E. coli C786 [5] [µg/mL] | Minimal inhibitory concentration, E. coli UB1005 [6] [µg/mL] | Minimal inhibitory concentration, E. coli DC2 [7] [µg/mL] | antimicrobial activity, overall (in words) [8] | Minimal inhibitory concentration, A. sal 99-1 [9] [µg/mL] | Minimal inhibitory concentration, A. sal 97-4 [10] [µg/mL] | Minimal inhibitory concentration, S. epi C621 [11] [µg/mL] | Minimal inhibitory concentration, MRSA C623 [12] [µg/mL] | Minimal inhibitory concentration, C. alb C627 [13] [µg/mL]
1 | GWKKWLRKGAKHLGQAAIK-NH2 [NRC-16] | 0.5 | 16 | 4 | 1 | 1 | 2 | 0.5 | broad spectrum of antimicrobial activity | 2 | 1 | 16 | 32 | 8
2 | GWKKWLRKGAKHLGQAAIKGLAS [NRC-17] |  |  |  |  |  |  |  | broad spectrum of antimicrobial activity | 2 | 1 | 32 | 16 | 8
3 | FLGALIKGAIHGGRFIHGMIQNHH-NH2 [NRC-5] | 64 | >64 | >64 | 32 | 64 | 64 | >64 |  | >64 | >64 | 32 | 32 | >64
4 | RSTEDIIKSISGGGFLNAMNA-NH2 [NRC-8] | >64 | >64 | >64 | >64 | >64 | >64 | >64 | poor or no observed activities | >64 | >64 | >64 | >64 | >64
5 | FFRLLFHGVHHVGKIKPRA-NH2 [NRC-10] | 16 | >64 | 32 | 8 | 32 | 32 | 32 | poor or no observed activities | >64 | 32 | 32 | 64 | >64
6 | FLGLLFHGVHHVGKWIHGLIHGHH-NH2 [NRC-19] | 16 | 64 | 32 | 8 | 32 | 16 | 32 |  | 64 | >64 | 8 | 8 | 64
7 | GFLGILFHGVHHGRKKALHMNSERRS [NRC-20] |  |  |  |  |  |  |  |  | >64 | >64 | >64 | >64 | >64
8 | AGWGSIFKHIFKAGKFIHGAIQAHND-NH2 [NRC-14] | 16 | >64 | 32 | 8 | 16 | 16 | 16 |  | 32 | 16 | 16 | 16 | >64
9 | GWGSFFKKAAHVGKHVGKAALTHYL-NH2 [NRC-4] | 2 | 16 | 8 | 4 | 2 | 4 | 2 |  | 2 | 2 | 8 | 8 | 8
10 | GWGSIFKHGRHAAKHIGHAAVNHYL-NH2 [NRC-6] | 4 | 64 | 16 | 4 | 4 | 4 | 2 |  | 4 | 4 | >64 | 32 | 32
11 | GWKKWFTKGERLSQRHFA [NRC-18] |  |  |  |  |  |  |  |  | >64 | 128 | >64 | >64 | >64
12 | GRRKRKWLRRIGKGVKIIGGAALDHL-NH2 [NRC-3] | 2 | 8 | 2 | 1 | 2 | 8 | 2 |  | 2 | 4 | 8 | 8 | 4
